Tests used:
[1] = test system: TCO-modified CC49 (CC49-TCO) targeting TAG-72 in human colorectal cancer LS174T xenograft tumors; test: Pretargeted fluorescence imaging, ex vivo fluorescence measurements of selected organs; format: in vivo, Balb/c nude mice; conditions: TCO-modified CC49 vs non-modified CC49 (control); compound 8 i.v. 72 h after antibody, 86.5 μg, 116.7 nmol; 1 h post injection; 488 nm excitation, 525/20 emission
Procedure: Pretargeted imaging of compound 8 of Example 1 was tested in vivo.
Pretargeted imaging of compound 8 of Example 1 was tested in vivo using the monoclonal antibody CC49 targeting TAG-72 in human colorectal cancer LS174T xenograft tumors. Tumors were established in 7-8 week old Balb/c nude mice and after 10 days, the animals were injected i.v. with either 50 μg (0.33 nmol) TCO-modified CC49 (CC49-TCO, ~3.5 TCO/mAb), or non-modified CC49 (control) (n=3 per group). After 72 hours, compound 8 (~100 equivalents per TCO, 86.5 μg, 116.7 nmol) in 100 μL of PBS (pH=7.4) was injected i.v.. One hour post injection, selected organs were harvested for ex vivo fluorescence measurements using a Amersham Typhoon 5 laser scanner platform (GE healthcare Europe) using a 488 nm excitation laser and 525/20 emission filter.

[2] = test system: anti-TAG72 mAb CC49 modified with TCO-tags (CC49-TCO) in LS174T tumor xenografts
Procedure: This assay employs anti-TAG72 mAb CC49 modified with TCO-tags (CC49-TCO) and [111In]In-DOTA-PEG11-BisPy-Tz (FIG. 1) with well-established performance in pretargeted imaging of TAG72 expressing LS174 tumor xenografts.
LS174T xenograft-bearing mice are injected with CC49-TCO. After allowing for accumulation for 72 h, the tetrazine to be evaluated is injected via the tail vein, followed by [111In]In-DOTA-PEG11-BisPy-Tz after 1 h. in vivo performance of the tetrazine to be evaluated can therefore be correlated to tumor uptake of [111In]In-DOTA-PEG11-BisPy-Tz after 22 h. Increased in vivo performance is reflected by lower tumor uptake (see FIG. 1).
Further, a negative control (−C) and a positive control (+C) are included.

Structure (SMILES)	fluorescence in tumor (ex vivo) [1]	blocking effect [2]
CC1=CC(C)=[N+]2C1=C(c1ccc(-c3nnc(-c4ccc(CN(CC(=O)O)CC(=O)O)cn4)nn3)nc1)c1c(C)cc(C)n1[B-]2(F)F [Compound 8, 2,2′-(((6-(6-(5-(5,5-difluoro-1,3,7,9-tetramethyl-5H-4λ4,5λ4-dipyrrolo[1,2-c:2′,1′-f][1,3,2]diazaborinin-10-yl)pyridin-2-yl)-1,2,4,5-tetrazin-3-yl)pyridin-3-yl)methyl)azanediyl)diacetic acid]	higher fluorescence in tumor	98%
CC1=CC(C)=[N+]2C1=C(c1ccnc(-c3nnc(-c4ccc(CN(CC(=O)O)CC(=O)O)cn4)nn3)c1)c1c(C)cc(C)n1[B-]2(F)F [Compound 7, 2,2′-(((6-(6-(4-(5,5-difluoro-1,3,7,9-tetramethyl-5H-4λ4,5λ4-dipyrrolo[1,2-c:2′,1′-f][1,3,2]diazaborinin-10-yl)pyridin-2-yl)-1,2,4,5-tetrazin-3-yl)pyridin-3-yl)methyl)azanediyl)diacetic acid]	–	93%
